The subject of the test is CEM cells HIV-1 protection, formazan growth assay. Put plainly: NCI AIDS Antiviral Assay. Conditions: for IC50: measured here: growth of uninfected CEM cells. Put shortly:
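CEM (human) cells, HIV-1 infected vs uninfected, 5-point dosing, formazan growth read-out. Retest threshold 50% protection.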

Calls of active or inactive are those of the source.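 How the source made its calls: active means compounds giving half or more protection of infected cells from virus-caused growth loss, again on retest; inactive means the rest.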 Where a SMILES comes first, the peptide text is derived from it. Where only a bound is given, the exact number is not on record here.

Usually EC50 stands for the concentration needed to bring the measured effect to its halfway point. As usually defined, the IC50 is the concentration at which inhibition is half-maximal.

As for `Cc1cccc2c1Sc1ccccc1C2NC(=O)CN(C)C` (stereo not drawn), the EC50 is over 417 µM and the half-maximal inhibitory concentration (IC50) was 102 µM.

As for `CNC(=O)c1ccc(NC(=O)Nc2cccc(C3=NCCN3)c2)cc1NC(=O)Nc1cccc(C2=NCCN2)c1`, the concentration giving a half-maximal response (EC50) was 28.2 µM and the IC50 worked out at 178 µM.

With `CNC(=O)NCNC(=O)NC`, the EC50 was over 562 µM and the IC50 is over 562 µM.

In the case of `O=C(Cc1ccccc1)N[C@@H]1COC(=O)[C@@H]2CCCN2C(=O)[C@@H]2CCCN2C1=O` (HELM PEPTIDE1{[O=C(Cc1ccccc1)[*:2]].[O=C([C@@H](CO[*:3])N[*:1])[*:2]].P.P}$PEPTIDE1,PEPTIDE1,2:R3-4:R2$$$V2.0), the EC50 was over 200 µM and the half-maximal inhibitory concentration (IC50) was over 200 µM.

As to `COc1ccc(/C=C\c2cc(OC)c(OC)c(OC)c2)cc1OC(=O)CCC(=O)O`, the EC50 was over 0.2 µM and the IC50 turned out to be 0.000562 µM.

On to `Brc1cccc[n+]1Cc1ccccc1C[n+]1ccccc1Br`, for which the EC50 is over 200 µM and the IC50 was over 200 µM.

Take `COC(=O)c1cc(NC2OCC(OC(C)=O)C(OC(C)=O)C2OC(C)=O)nc(SC)c1C(=O)OC` (stereo not drawn): the EC50 was over 200 µM and the IC50 is over 200 µM.

`COc1ccc(CCCCl)c(C2=NCCc3ccccc32)c1`: the EC50 is over 200 µM and the IC50 came out at 7.08 µM.

As for `COC(=O)c1ccc(Cc2ccc(C(=O)OC)o2)o1`, the EC50 was over 191 µM and the IC50 is over 191 µM.

As to `Cc1ccc(S)c(C(O)(C(F)(F)F)C(F)(F)F)c1`, the EC50 is over 200 µM and the IC50 turned out to be 12 µM.

As to `CSc1s[s+]c(SC)c1-c1ccccc1`, the EC50 was 14.8 µM and the IC50 is 16.2 µM.

Consider `O=c1[nH]c(-c2ccccc2)nc2cc([N+](=O)[O-])c(/C(Cl)=C/c3ccccc3)cc12`, for which the result was inactive.

`COc1cc(O)cc(O)c1C(=O)CC(Cl)(Cl)Cl`: the EC50 is over 316 µM and the concentration for half-maximal inhibition (IC50) is 170 µM.

As for `CCCCCCC(O)CC[C@H]1CCC[C@@H](C)N1` (stereo partly drawn), the outcome was inactive.

As for `O=C1CC2(C(=O)O1)C1C(=O)OC(=O)C1C1C=CC=NN12` (stereo not drawn), the EC50 was over 200 µM and the half-maximal inhibitory concentration (IC50) was over 200 µM.

As to `O=C(NCCN1CCOCC1)c1ccc(I)cc1`, the EC50 was over 200 µM and the IC50 was over 200 µM.

With `CCCCOC(=O)C(=O)C(CC(CC)C(=O)c1ccccc1)C(=O)C=C(C)C` (stereo not drawn), the EC50 is over 646 µM and the IC50 is over 646 µM.

With `O=S(=O)(C1=CC(S(=O)(=O)c2ccccc2)COC1)c1ccccc1` (stereo not drawn), the result was inactive.

Consider `COc1cc(/C=C2\CCC(C)C3=C(c4cc(OC)c(OC)c(OC)c4)C(C#N)=C(N)OC32)cc(OC)c1OC` (stereo not drawn), for which the result was inactive.

Take `CCOC(=O)CC1=NC(C)(C)CC(C)O1` (stereo not drawn): the EC50 is over 200 µM and the 50% inhibitory concentration (IC50) was over 200 µM.

In the case of `CCCCCCOP(=O)(OCCCCCC)OC(C(=O)OC)C(F)(F)F` (stereo not drawn), the EC50 was over 200 µM and the concentration for half-maximal inhibition (IC50) amounted to 44.7 µM.

Turning to `CCc1oc2ccc(OC)c3c2c1C=CC=C3`, the outcome was inactive.

Consider `N=C(N)n1[nH]c2c(c1=O)CCC2`, for which the EC50 is over 200 µM and the IC50 is over 200 µM.

Consider `CCOC1C2c3cc(OC)c(OC)cc3CC(C#N)(c3ccccc32)N1C(=O)c1ccccc1` (stereo not drawn), for which the outcome was inactive.

On to `C=CC(=O)N1C/C(=C\c2ccc(N(C)C)cc2)C(=O)/C(=C/c2ccc(N(C)C)cc2)C1`, for which the EC50 was over 200 µM and the concentration for half-maximal inhibition (IC50) was found to be 60.3 µM.

Take `COC1/C=C/OC2(C)Oc3c(C)c(O)c4c(O)c(c(/C=N/N5CCCN(C)CC5)c(O)c4c3C2=O)NC(=O)/C(C)=C\C=C\C(C)C(O)C(C)C(O)C(C)C(OC(C)=O)C1C` (stereo not drawn): the EC50 was over 200 µM and the half-maximal inhibitory concentration (IC50) was 89.1 µM.

For `COc1ccc(/C=C2\N=C(C)OC2=O)cc1`, the EC50 is over 437 µM and the IC50 was over 437 µM.

As for `CCCCN[C@H]1C2C3CC4C5CC(C42)C1(C)C53` (stereo partly drawn), the EC50 was over 933 µM and the IC50 was found to be 380 µM.

With `Cc1ccc(/C=N/n2c(Cc3ccccc3)n[nH]c2=O)cc1`, the EC50 is over 200 µM and the IC50 is over 200 µM.

Consider `N#Cc1ccc(/C=C2\CCc3ccccc3C2=O)cc1`, for which the EC50 was over 20 µM and the 50% inhibitory concentration (IC50) was over 20 µM.

Consider `CCOP(=O)(OCC)C(C)(C)OC(=O)NC#N`, for which the EC50 is over 200 µM and the IC50 is over 200 µM.

In the case of `O=C1/C(=C\c2ccccc2)C2/C(=C\c3ccccc3)C(=O)/C(=C\c3ccccc3)C2/C1=C\c1ccccc1` (stereo not drawn), the result was inactive.

With `CCc1cccc(CC)c1NC(=O)C1=C(C)NC(C)=C(C(=O)Nc2c(CC)cccc2CC)C1c1ccc([N+](=O)[O-])cc1`, the EC50 was over 44.7 µM and the half-maximal inhibitory concentration (IC50) was over 44.7 µM.

On to `Cc1cc(Sc2cc(C)c(O)c(C(C)(C)C)c2)cc(C(C)(C)C)c1O`, for which the EC50 was over 200 µM and the half-maximal inhibitory concentration (IC50) came to 15.8 µM.

Regarding `CC(NC(=O)C(CO)NC(=O)C(C)NC(=O)C(C)NC(=O)C(CC(N)=O)NC(=O)CN)C(N)=O` (stereo not drawn) (H-GNAASA-NH2; configuration not given here), the outcome was inactive.

For `OC1C[C@H](c2ccccc2)C2(C(O)c3ccccc3C2O)[C@@H](c2ccccc2)C1` (stereo partly drawn), the EC50 is over 200 µM and the IC50 was 89.1 µM.

In the case of `Oc1ccc(Cl)cc1CN1CCN(Cc2cc(Cl)ccc2O)C1`, the EC50 was over 200 µM and the IC50 amounted to 1.38 µM.

On to `COC(=O)CCSSCCC(=O)OC`, for which the EC50 was over 1050 µM and the IC50 was 182 µM.

With `C/C(=N\Nc1ncnc2ccccc12)c1ccccn1`, the EC50 was over 0.2 µM and the concentration for half-maximal inhibition (IC50) was 0.0257 µM.

In the case of `NC(Cc1csc2ccccc12)C(=O)O` (stereo not drawn), the EC50 is over 200 µM and the 50% inhibitory concentration (IC50) is 19.5 µM.

Take `CCC(=N\N=C(N)N)/C(CC)=N/N=C(N)N`: the EC50 is over 562 µM and the concentration for half-maximal inhibition (IC50) was over 562 µM.

Turning to `Cc1cccc(-c2nnc3s/c(=C\c4ccc(N(C)C)cc4)c(=O)n23)c1`, the EC50 was over 30.9 µM and the concentration for half-maximal inhibition (IC50) is over 30.9 µM.

Regarding `COc1cc(C2C(C#N)=C(N)OC3=C2CCS(=O)(=O)c2ccc(C)cc23)cc(OC)c1OC` (stereo not drawn), the EC50 is over 200 µM and the IC50 is over 200 µM.

In the case of `O=C1Oc2ccccc2C(=O)/C1=C1/C=C(c2ccccc2)SS1`, the EC50 was over 200 µM and the concentration for half-maximal inhibition (IC50) was over 200 µM.

In the case of `COc1ccc2c(c1)CCCN1Cc3ccccc3CC21` (stereo not drawn), the EC50 was over 200 µM and the concentration for half-maximal inhibition (IC50) turned out to be 141 µM.

On to `CCN(CC)CC(=O)Nc1ccc(Cl)cc1C(O)c1ccccc1` (stereo not drawn), for which the EC50 was over 200 µM and the half-inhibitory concentration (IC50) was determined as 120 µM.

As for `CSCCOC(=O)C(=[N+]=[N-])c1ccc([N+](=O)[O-])cc1`, the outcome was inactive.

Take `COc1ccc(Cn2nc(OCc3ccccn3)c3cc([N+](=O)[O-])ccc32)cc1`: the EC50 was over 200 µM and the IC50 is over 200 µM.

`Nc1n[nH]c2c(C(=O)Nc3ccc(Cl)cc3)c(N)n(N)c(=O)c12`: the EC50 was over 200 µM and the IC50 is over 200 µM.

`Cc1cc(O)c2c(c1)C(=O)C(c1c(C)cc3c(c1O)C(=O)C1OC1C3=O)=CC2=O` (stereo not drawn) came in with an EC50 of over 174 µM and an IC50 of 0.0933 µM.

Regarding `CC(=O)C[P+](c1ccccc1)(c1ccccc1)c1ccccc1`, the EC50 was over 200 µM and the IC50 turned out to be 61.7 µM.

Consider `O=S(=O)(Oc1ccccn1)c1ccc(Br)cc1`, for which the EC50 is over 200 µM and the IC50 was over 200 µM.

For the molecule `CN1C2(c3ccccc3)c3c(-c4ccccc4)sc(-c4ccccc4)c3C1(c1ccccc1)C1C(=O)N(c3ccccc3)C(=O)C12` (stereo not drawn), the outcome was inactive.

As for `CCCCCOCC(O)CO` (stereo not drawn), the outcome was inactive.

For the molecule `CCN(CC)CCn1c(=O)c2cccnc2n2c3c(=O)n(C)c(=O)n(C)c3nc12`, the half-maximal effective concentration (EC50) is over 129 µM and the IC50 stood at 60.3 µM.

As to `O=C1c2ccccc2C(=O)N1C/C=N/NS(=O)(=O)c1ccc(Br)cc1`, the EC50 was over 112 µM and the half-inhibitory concentration (IC50) was over 112 µM.

On to `COc1ccc(-c2nc(Nc3ccccc3)sc2Cc2sc(Nc3ccccc3)nc2-c2ccc(OC)cc2)cc1`, for which the outcome was inactive.

As for `CC(C(N)C(=O)NC(C(=O)O)C1OC(c2c[nH]c(=O)[nH]c2=O)C(O)C1O)C(O)c1ccc(O)cn1` (stereo not drawn), the result was inactive.

As to `COc1cc(-c2ccc(N=Nc3cc(S(=O)(=O)O)c4ccccc4c3O)c(OC)c2)ccc1N=Nc1cc(S(=O)(=O)O)c2ccccc2c1O`, the EC50 is 135 µM and the IC50 worked out at 141 µM.

For `CCCCCC(O)C1C(=O)OC(C)C(O)/C=C/C=C/C=C/C=C\C=C(\C)C(O)CC(O)CC(O)CC(O)CC(O)CC(O)CC1O` (stereo not drawn), the EC50 is over 200 µM and the half-maximal inhibitory concentration (IC50) is over 200 µM.

On to `O=c1c(OC2OC(CO)C(O)C(O)C2OC2OCC(O)(CO)C2O)c(-c2ccc(O)cc2)oc2cc(O)cc(O)c12` (stereo not drawn), for which the EC50 was over 42.7 µM and the 50% inhibitory concentration (IC50) was over 42.7 µM.

On to `COc1cc(/C=C(\C#N)C(N)=C(C#N)C#N)cc(O)c1O`, for which the EC50 is over 47.9 µM and the IC50 is over 47.9 µM.

As for `COc1nc2c(nnn2C2OC(CO)C(O)C(O)C2O)c(=O)n1C` (stereo not drawn), the outcome was inactive.

Take `CCN1CCC(O)(c2ccc(Oc3ccc(C)cc3)cc2)C(C(=O)c2ccc(Oc3ccc(C)cc3)cc2)C1` (stereo not drawn): the EC50 was over 200 µM and the 50% inhibitory concentration (IC50) came to 3.8 µM.

In the case of `COc1ccc(C2(OC)Oc3cc(OC)ccc3C(=O)C2(O)OC)cc1` (stereo not drawn), the EC50 was over 200 µM and the 50% inhibitory concentration (IC50) was 11 µM.

For `O=C1CN2C(Cl)(Cl)C2(c2ccccc2)c2cc(Cl)ccc2N1CC(F)(F)F` (stereo not drawn), the EC50 was over 200 µM and the IC50 came out at 29.5 µM.

Take `CN(C)c1ccc(/[N+]([O-])=C/c2cc(=O)c(OS(C)(=O)=O)co2)cc1`: the EC50 is over 200 µM and the IC50 is 3.09 µM.

For the molecule `COc1ccc(CCc2nccn2C)cc1OC`, the EC50 was over 200 µM and the IC50 is over 200 µM.

Turning to `Cn1c(=O)c2c(ncn2CCCCn2ccnc2[N+](=O)[O-])n(C)c1=O`, the EC50 is over 200 µM and the concentration for half-maximal inhibition (IC50) was over 200 µM.

Take `COc1cc2c(c([N+](=O)[O-])c1)NCCS2`: the EC50 is over 200 µM and the IC50 was over 200 µM.

On to `CCN(CC)CCn1nc(N)c2nc3cc(Cl)ccc3nc21`, for which the EC50 is over 100 µM and the IC50 was determined as 51.3 µM.

Source of the values: PubChem BioAssay AID179 (DTP/NCI, 2004).
